Reference: ChEMBL document CHEMBL2069290, “Synthesis and biological evaluation of novel oxindole derivatives for imaging neurofibrillary tangles in Alzheimer's disease” (Bioorg Med Chem Lett, 2012)
One block for each molecule: values may come before it. The source made the active and inactive calls. No cut-off for these calls is given here.

Tests used:
Blood [1] = test: Biodistribution in ddY mouse blood at 3.3 to 6.7 kBq, iv after 2 mins by gamma counting; type: ADME, organism-based; details: in vivo
Blood [2] = test: Biodistribution in ddY mouse blood at 3.3 to 6.7 kBq, iv after 10 mins by gamma counting; type: ADME, organism-based; details: in vivo
Blood [3] = test: Biodistribution in ddY mouse blood at 3.3 to 6.7 kBq, iv after 30 mins by gamma counting; type: ADME, organism-based; details: in vivo, 0.5 h
Blood [4] = test: Biodistribution in ddY mouse blood at 3.3 to 6.7 kBq, iv after 60 mins by gamma counting; type: ADME, organism-based; details: in vivo, 1 h
Liver [5] = test: Biodistribution in ddY mouse liver at 3.3 to 6.7 kBq, iv after 2 mins by gamma counting; type: ADME, organism-based; details: in vivo
Liver [6] = test: Biodistribution in ddY mouse liver at 3.3 to 6.7 kBq, iv after 10 mins by gamma counting; type: ADME, organism-based; details: in vivo
Liver [7] = test: Biodistribution in ddY mouse liver at 3.3 to 6.7 kBq, iv after 30 mins by gamma counting; type: ADME, organism-based; details: in vivo, 0.5 h
Liver [8] = test: Biodistribution in ddY mouse liver at 3.3 to 6.7 kBq, iv after 60 mins by gamma counting; type: ADME, organism-based; details: in vivo, 1 h
Kidney [9] = test: Biodistribution in ddY mouse kidney at 3.3 to 6.7 kBq, iv after 2 mins by gamma counting; type: ADME, organism-based; details: in vivo
Kidney [10] = test: Biodistribution in ddY mouse kidney at 3.3 to 6.7 kBq, iv after 10 mins by gamma counting; type: ADME, organism-based; details: in vivo
Kidney [11] = test: Biodistribution in ddY mouse kidney at 3.3 to 6.7 kBq, iv after 30 mins by gamma counting; type: ADME, organism-based; details: in vivo, 0.5 h
Kidney [12] = test: Biodistribution in ddY mouse kidney at 3.3 to 6.7 kBq, iv after 60 mins by gamma counting; type: ADME, organism-based; details: in vivo, 1 h
Intestine [13] = test: Biodistribution in ddY mouse intestine at 3.3 to 6.7 kBq, iv after 2 mins by gamma counting; type: ADME, organism-based; details: in vivo
Intestine [14] = test: Biodistribution in ddY mouse intestine at 3.3 to 6.7 kBq, iv after 10 mins by gamma counting; type: ADME, organism-based; details: in vivo
Intestine [15] = test: Biodistribution in ddY mouse intestine at 3.3 to 6.7 kBq, iv after 30 mins by gamma counting; type: ADME, organism-based; details: in vivo, 0.5 h
Intestine [16] = test: Biodistribution in ddY mouse intestine at 3.3 to 6.7 kBq, iv after 60 mins by gamma counting; type: ADME, organism-based; details: in vivo, 1 h
Spleen [17] = test: Biodistribution in ddY mouse spleen at 3.3 to 6.7 kBq, iv after 2 mins by gamma counting; type: ADME, organism-based; details: in vivo
Spleen [18] = test: Biodistribution in ddY mouse spleen at 3.3 to 6.7 kBq, iv after 10 mins by gamma counting; type: ADME, organism-based; details: in vivo
Spleen [19] = test: Biodistribution in ddY mouse spleen at 3.3 to 6.7 kBq, iv after 30 mins by gamma counting; type: ADME, organism-based; details: in vivo, 0.5 h
Spleen [20] = test: Biodistribution in ddY mouse spleen at 3.3 to 6.7 kBq, iv after 60 mins by gamma counting; type: ADME, organism-based; details: in vivo, 1 h
Pancreas [21] = test: Biodistribution in ddY mouse pancreas at 3.3 to 6.7 kBq, iv after 2 mins by gamma counting; type: ADME, organism-based; details: in vivo
Pancreas [22] = test: Biodistribution in ddY mouse pancreas at 3.3 to 6.7 kBq, iv after 10 mins by gamma counting; type: ADME, organism-based; details: in vivo
Pancreas [23] = test: Biodistribution in ddY mouse pancreas at 3.3 to 6.7 kBq, iv after 30 mins by gamma counting; type: ADME, organism-based; details: in vivo, 0.5 h
Pancreas [24] = test: Biodistribution in ddY mouse pancreas at 3.3 to 6.7 kBq, iv after 60 mins by gamma counting; type: ADME, organism-based; details: in vivo, 1 h
Heart [25] = test: Biodistribution in ddY mouse heart at 3.3 to 6.7 kBq, iv after 2 mins by gamma counting; type: ADME, organism-based; details: in vivo
Heart [26] = test: Biodistribution in ddY mouse heart at 3.3 to 6.7 kBq, iv after 10 mins by gamma counting; type: ADME, organism-based; details: in vivo
Heart [27] = test: Biodistribution in ddY mouse heart at 3.3 to 6.7 kBq, iv after 30 mins by gamma counting; type: ADME, organism-based; details: in vivo, 0.5 h
Heart [28] = test: Biodistribution in ddY mouse heart at 3.3 to 6.7 kBq, iv after 60 mins by gamma counting; type: ADME, organism-based; details: in vivo, 1 h
Stomach [29] = test: Biodistribution in ddY mouse stomach assessed per organ at 3.3 to 6.7 kBq, iv after 2 mins by gamma counting; type: ADME, organism-based; details: in vivo
Stomach [30] = test: Biodistribution in ddY mouse stomach assessed per organ at 3.3 to 6.7 kBq, iv after 10 mins by gamma counting; type: ADME, organism-based; details: in vivo
Stomach [31] = test: Biodistribution in ddY mouse stomach assessed per organ at 3.3 to 6.7 kBq, iv after 30 mins by gamma counting; type: ADME, organism-based; details: in vivo, 0.5 h
Stomach [32] = test: Biodistribution in ddY mouse stomach assessed per organ at 3.3 to 6.7 kBq, iv after 60 mins by gamma counting; type: ADME, organism-based; details: in vivo, 1 h
Brain [33] = test: Biodistribution in ddY mouse brain at 3.3 to 6.7 kBq, iv after 2 mins by gamma counting; type: ADME, organism-based; details: in vivo
Brain [34] = test: Biodistribution in ddY mouse brain at 3.3 to 6.7 kBq, iv after 10 mins by gamma counting; type: ADME, organism-based; details: in vivo
Brain [35] = test: Biodistribution in ddY mouse brain at 3.3 to 6.7 kBq, iv after 30 mins by gamma counting; type: ADME, organism-based; details: in vivo, 0.5 h
Brain [36] = test: Biodistribution in ddY mouse brain at 3.3 to 6.7 kBq, iv after 60 mins by gamma counting; type: ADME, organism-based; details: in vivo, 1 h
Brain [37] = test: Ratio of drug uptake in ddY mouse brain after 2 mins to drug uptake in ddY mouse brain after 30 mins; type: ADME, tissue-based; details: in vivo
Homo sapiens [38] = species: Homo sapiens; test: Selectivity ratio of Ki for amyloid beta(1 to 42) to Ki for human Tau
[39] = molecular target: Microtubule-associated protein tau (Homo sapiens, UniProt P10636); test: Binding affinity to human Tau aggregates after 30 mins by Thioflavin-S-based fluorescence assay
Microtubule-associated protein tau, sequence (P10636 whole entry): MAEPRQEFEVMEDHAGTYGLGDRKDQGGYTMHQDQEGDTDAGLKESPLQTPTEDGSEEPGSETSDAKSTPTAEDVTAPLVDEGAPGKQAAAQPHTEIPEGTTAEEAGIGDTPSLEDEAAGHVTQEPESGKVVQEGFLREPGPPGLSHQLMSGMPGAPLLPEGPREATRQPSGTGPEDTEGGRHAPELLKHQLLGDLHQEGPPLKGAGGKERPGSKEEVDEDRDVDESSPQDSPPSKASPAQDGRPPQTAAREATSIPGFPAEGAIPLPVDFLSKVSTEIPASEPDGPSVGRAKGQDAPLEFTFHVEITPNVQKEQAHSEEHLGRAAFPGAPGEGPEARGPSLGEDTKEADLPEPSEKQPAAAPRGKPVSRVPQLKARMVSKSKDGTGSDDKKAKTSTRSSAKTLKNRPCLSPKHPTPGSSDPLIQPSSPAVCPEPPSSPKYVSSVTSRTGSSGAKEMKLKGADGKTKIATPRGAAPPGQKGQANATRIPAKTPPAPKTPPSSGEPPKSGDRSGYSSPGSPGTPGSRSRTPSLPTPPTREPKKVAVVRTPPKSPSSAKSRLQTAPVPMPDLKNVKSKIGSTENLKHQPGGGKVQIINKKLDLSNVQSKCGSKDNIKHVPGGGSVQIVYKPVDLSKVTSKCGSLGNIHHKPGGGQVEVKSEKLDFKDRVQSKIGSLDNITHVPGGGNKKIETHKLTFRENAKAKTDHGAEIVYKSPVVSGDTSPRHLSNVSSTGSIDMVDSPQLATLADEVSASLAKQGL

[40] = molecular target: Amyloid-beta precursor protein (Homo sapiens, UniProt P05067); test: Binding affinity to amyloid beta(1 to 42) aggregates after 30 mins by Thioflavin-S-based fluorescence assay
Amyloid-beta precursor protein, sequence (P05067 whole entry): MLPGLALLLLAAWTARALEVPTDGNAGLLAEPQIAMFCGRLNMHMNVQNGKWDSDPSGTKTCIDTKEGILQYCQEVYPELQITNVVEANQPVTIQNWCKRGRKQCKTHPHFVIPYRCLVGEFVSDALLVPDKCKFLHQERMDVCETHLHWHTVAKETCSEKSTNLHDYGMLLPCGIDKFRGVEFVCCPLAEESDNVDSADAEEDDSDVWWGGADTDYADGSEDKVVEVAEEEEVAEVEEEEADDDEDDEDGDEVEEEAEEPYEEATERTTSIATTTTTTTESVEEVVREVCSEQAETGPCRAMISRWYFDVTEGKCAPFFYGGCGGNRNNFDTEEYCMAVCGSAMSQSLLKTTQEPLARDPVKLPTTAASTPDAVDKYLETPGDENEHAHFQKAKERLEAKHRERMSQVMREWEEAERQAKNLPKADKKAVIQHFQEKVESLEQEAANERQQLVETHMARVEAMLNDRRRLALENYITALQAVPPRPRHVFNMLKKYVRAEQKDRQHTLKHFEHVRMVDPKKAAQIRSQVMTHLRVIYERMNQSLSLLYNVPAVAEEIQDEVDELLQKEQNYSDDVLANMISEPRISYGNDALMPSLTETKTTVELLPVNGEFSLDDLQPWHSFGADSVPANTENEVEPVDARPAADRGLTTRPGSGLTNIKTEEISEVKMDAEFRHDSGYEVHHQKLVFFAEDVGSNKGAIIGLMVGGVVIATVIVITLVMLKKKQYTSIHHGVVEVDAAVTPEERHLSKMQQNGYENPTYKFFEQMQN

Homo sapiens [41] = species: Homo sapiens; test: Binding affinity to neurofibrillary tangles in entorhinal cortex of alzheimer disease patient after 10 mins by Thioflavin-S-based fluorescence microscopy; type: tissue-based

Compound: CN(C)c1ccc(/C=C2\Nc3ccc([125I])cc3C2=O)cc1
Drug uptake (Blood [1]): 4.7 % ID/g | Drug uptake (Blood [2]): 3.76 % ID/g | Drug uptake (Blood [3]): 2.06 % ID/g | Drug uptake (Blood [4]): 2.23 % ID/g | Drug uptake (Liver [5]): 9.81 % ID/g | Drug uptake (Liver [6]): 11.29 % ID/g | Drug uptake (Liver [7]): 9.85 % ID/g | Drug uptake (Liver [8]): 8.9 % ID/g | Drug uptake (Kidney [9]): 11.93 % ID/g | Drug uptake (Kidney [10]): 16.57 % ID/g | Drug uptake (Kidney [11]): 11.38 % ID/g | Drug uptake (Kidney [12]): 7.55 % ID/g | Drug uptake (Intestine [13]): 2.13 % ID/g | Drug uptake (Intestine [14]): 3.17 % ID/g | Drug uptake (Intestine [15]): 7.05 % ID/g | Drug uptake (Intestine [16]): 10.7 % ID/g | Drug uptake (Spleen [17]): 3.2 % ID/g | Drug uptake (Spleen [18]): 4.46 % ID/g | Drug uptake (Spleen [19]): 4.08 % ID/g | Drug uptake (Spleen [20]): 2.17 % ID/g | Drug uptake (Pancreas [21]): 4.4 % ID/g | Drug uptake (Pancreas [22]): 2.54 % ID/g | Drug uptake (Pancreas [23]): 1.39 % ID/g | Drug uptake (Pancreas [24]): 0.94 % ID/g | Drug uptake (Heart [25]): 7.94 % ID/g | Drug uptake (Heart [26]): 3.42 % ID/g | Drug uptake (Heart [27]): 2.23 % ID/g | Drug uptake (Heart [28]): 2.11 % ID/g | Drug uptake (Stomach [29]): 0.96 %ID | Drug uptake (Stomach [30]): 1.67 %ID | Drug uptake (Stomach [31]): 2.1 %ID | Drug uptake (Stomach [32]): 3.8 %ID | Drug uptake (Brain [33]): 2.52 % ID/g | Drug uptake (Brain [34]): 1.4 % ID/g | Drug uptake (Brain [35]): 0.63 % ID/g | Drug uptake (Brain [36]): 0.36 % ID/g | Ratio (Brain [37]): 4

Compound: O=C1/C(=C/c2ccc(-c3cccc(I)c3)o2)NC(=S)N1CCc1c[nH]cn1
Ratio Ki (Homo sapiens [38]): 7.33

Compound: CN(C)c1ccc(/C=C2\Nc3ccc(I)cc3C2=O)cc1
Ki [39]: 17 nM | Ki [40]: 31 nM | Ratio Ki (Homo sapiens [38]): 1.77 | Activity (Homo sapiens [41]): Active

Compound: CNc1ccc(/C=C2\Nc3ccc([125I])cc3C2=O)cc1
Drug uptake (Blood [1]): 7.5 % ID/g | Drug uptake (Blood [2]): 4.97 % ID/g | Drug uptake (Blood [3]): 3.3 % ID/g | Drug uptake (Blood [4]): 1.95 % ID/g | Drug uptake (Liver [5]): 9.51 % ID/g | Drug uptake (Liver [6]): 12.4 % ID/g | Drug uptake (Liver [7]): 11.59 % ID/g | Drug uptake (Liver [8]): 6.26 % ID/g | Drug uptake (Kidney [9]): 13.48 % ID/g | Drug uptake (Kidney [10]): 18.16 % ID/g | Drug uptake (Kidney [11]): 19.35 % ID/g | Drug uptake (Kidney [12]): 10.01 % ID/g | Drug uptake (Intestine [13]): 2.29 % ID/g | Drug uptake (Intestine [14]): 4.24 % ID/g | Drug uptake (Intestine [15]): 7.55 % ID/g | Drug uptake (Intestine [16]): 9.86 % ID/g | Drug uptake (Spleen [17]): 6.97 % ID/g | Drug uptake (Spleen [18]): 9.67 % ID/g | Drug uptake (Spleen [19]): 14.05 % ID/g | Drug uptake (Spleen [20]): 7.75 % ID/g | Drug uptake (Pancreas [21]): 5.43 % ID/g | Drug uptake (Pancreas [22]): 2.95 % ID/g | Drug uptake (Pancreas [23]): 2.25 % ID/g | Drug uptake (Pancreas [24]): 1.4 % ID/g | Drug uptake (Heart [25]): 8.52 % ID/g | Drug uptake (Heart [26]): 5.36 % ID/g | Drug uptake (Heart [27]): 6.32 % ID/g | Drug uptake (Heart [28]): 2.65 % ID/g | Drug uptake (Stomach [29]): 0.77 %ID | Drug uptake (Stomach [30]): 1.7 %ID | Drug uptake (Stomach [31]): 2.96 %ID | Drug uptake (Stomach [32]): 2.92 %ID | Drug uptake (Brain [33]): 2.45 % ID/g | Drug uptake (Brain [34]): 1.75 % ID/g | Drug uptake (Brain [35]): 0.74 % ID/g | Drug uptake (Brain [36]): 0.23 % ID/g | Ratio (Brain [37]): 3.31

Compound: O=C1/C(=C/c2ccc(-c3cccc([125I])c3)o2)NC(=S)N1CCc1c[nH]cn1
Ratio (Brain [37]): 2.33

Continued, values first:

Ratio (Brain [37]): < 2
Compound: Nc1ccc(-c2ccc3cc(OCC[18F])ccc3n2)cc1

Ratio (Brain [37]): 3.65
Compound: [11CH3]Nc1ccc(-c2ccc3ccccc3n2)cc1
